According to patent US9926369B2, “Methods for treating hepatocellular cancer by administering an anti-Ang-2 antibody” (Regeneron Pharmaceuticals, Inc., priority 2009, dated 2018):

Assays:
[1] = tested on: retinal superficial vasculature; experiment: Retinal vascularization in wild-type mice; type: in vivo; settings: 12.5 mg/kg subcutaneous at P2, retina at P5
Method: In one set of experiments wild-type mice were used. In another set, mice expressing a human Ang-2 in place of the wild-type mouse Ang-2 (designated “hu-Ang-2 mice”) were used. The mice at two days of age (P2) were injected subcutaneously with either control Fc or with selected anti-Ang-2 antibodies at a dose of 12.5 mg/kg. Three days later (at P5), pups were euthanized, and eyeballs were enucleated and fixed in 4% PFA for 30 minutes. Retinas were dissected, stained with Griffonia simplicifolia lectin-1 for 3 hours or overnight at 4° C. to visualize the vasculature, and flat-mounted on microscope slides. Images were taken using a Nikon Eclipse 80i microscope camera and analyzed using Adobe Photoshop CS3, Fovea 4.0, and Scion 1.63 software.
Areas of the retina covered with superficial vasculature were measured and used as a readout of antibody activity. The reduction in the size of the vascular areas in mice treated with antibody compared to Fc-treated controls is presented in Table 34. The percent reduction in vascular area reflects the anti-angiogenic potency of the antibody. (N/D=not determined)

[2] = tested on: Ang-1-mediated Tie-2 phosphorylation in EA.hy926 cells; experiment: Inhibition of Ang-1-mediated Tie-2 phosphorylation in EA.hy926 cells; type: cell-based, human; settings: up to 400 nM
Method: EA.hy926 cells (Edgell et al., Proc. Natl. Acad. Sci. USA 80:3734-3737 (1983)) were plated at 5×10^6 cells per 10 cm dish in 10 ml DMEM with 10% FBS, HAT, L-glutamine and penicillin/streptomycin. After 24 hours, cells were serum-starved for 1 hour in 10 ml DMEM+1 mg/ml BSA. Cells were then stimulated for 10 minutes with 500 ng/ml of recombinant human Ang-1 (R&D Systems) in the presence of either an irrelevant isotype control antibody (“9E10”) at 400 nM or the anti-Ang-2 antibody H1H685P, or control agents (Control I, Control II, Control IV, or Control V) at concentrations ranging from 10 to 400 nM.
Following incubation, cells were lysed and Tie-2 was immunoprecipitated as described by Daly et al., Proc. Natl. Acad. Sci. USA 103:15491-15496 (2006). Immune complexes were collected by incubation with protein A/G beads (Santa Cruz Biotechnology, Santa Cruz, Calif.) for 60 min. Beads were washed with cold lysis buffer and bound proteins were eluted by heating in SDS sample buffer. Samples were then subjected to Western blot analysis with monoclonal antibodies against Tie-2 or phosphotyrosine (clone 4G10, Millipore, Billerica, Mass.).
Signals were detected using HRP-conjugated secondary antibodies and ECL reagents (GE Healthcare, Piscataway, N.J.). X-ray films were scanned and the phospho-Tie-2 and Tie-2 signals were quantified using ImageJ software. […]

[3] = biological target: Dimeric Human Ang-2FD-mFc (Homo sapiens, UniProt O15123); experiment: Cross-species SPR binding at 25° C. or 37° C., human Ang-2FD-mFc
Method: Additional binding experiments were conducted using selected anti-Ang-2 antibodies at two different temperatures to further assess cross-species affinity. Each selected antibody or control construct was captured at a flow rate of 40 μL/min for 1 minute on a goat anti-human kappa polyclonal antibody surface created through direct chemical coupling to a BIACORE™ chip to form a captured antibody surface. Human, monkey and mouse Ang-2FD-Fc at a concentration of 25 nM or 0.78 nM was injected over the captured antibody surface at a flowrate of 60 μL/min for 3 minutes, and antigen-antibody dissociation was monitored in real time for 20 minutes at either 25° C. or 37° C.

Dimeric Human Ang-2FD-mFc, sequence (O15123 with tags, fused parts or gaps): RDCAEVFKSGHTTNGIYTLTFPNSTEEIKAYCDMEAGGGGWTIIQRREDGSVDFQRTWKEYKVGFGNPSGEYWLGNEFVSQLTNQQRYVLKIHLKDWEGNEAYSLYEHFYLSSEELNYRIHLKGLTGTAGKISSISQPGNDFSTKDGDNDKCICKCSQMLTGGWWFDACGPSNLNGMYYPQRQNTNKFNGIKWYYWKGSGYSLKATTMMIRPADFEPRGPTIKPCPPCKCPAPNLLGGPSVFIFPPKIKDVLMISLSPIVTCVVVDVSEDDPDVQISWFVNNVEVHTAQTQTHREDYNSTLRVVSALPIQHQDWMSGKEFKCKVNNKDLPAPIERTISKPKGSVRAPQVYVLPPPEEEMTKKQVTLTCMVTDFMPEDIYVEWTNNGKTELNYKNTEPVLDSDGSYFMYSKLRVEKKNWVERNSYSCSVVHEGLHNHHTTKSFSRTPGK

Substance: H1H685P: human anti-Ang-2 antibody, HCVR/LCVR SEQ ID NOs 18/20; also referred to as mAb1 [Antibody H1H685P]
- % Reduction in Vascular Area Relative to Fc Control, Wild-Type Mice [1]: 39.7%
- Inhibitory effect on Ang-1-induced Tie-2 phosphorylation (in words) [2]: no significant inhibitory effect
- Kd ([3]; 25° C.): 0.0117 nM
- Kd ([3]; 37° C.): 0.027 nM
